Columns and labels:
[1] = biological target: T1, Dermatophagoides farinae allergen (DerfII) (Dermatophagoides farinae, UniProt Q00855); format: biochemical; conditions: 1 mg of sample
T1 sequence (Q00855 18-146): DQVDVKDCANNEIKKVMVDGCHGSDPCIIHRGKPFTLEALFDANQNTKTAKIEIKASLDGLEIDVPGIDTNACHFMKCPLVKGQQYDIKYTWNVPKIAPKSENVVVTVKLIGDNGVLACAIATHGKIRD
Protocol: (§3) The anti-allergen effect of the present invention is evaluated by a sandwich ELISA method, which is widely known as a method for detecting/quantifying an antigen, and is expressed as the percentage allergen inactivation shown in Equation 1. The initial amount of allergen means the amount of allergen used in an ELISA evaluation, and the amount of allergen remaining means the amount of allergen after contacting a sample.
(§4) Percentage allergen inactivation=(1−amount of allergen remaining/initial amount of allergen)×100(%) <Equation 1>
Anti-allergen effects were evaluated by a sandwich ELISA method employing Dermatophagoides farinae allergen (allergen generally called DerfII) and Cryptomeria japonica pollen allergen (allergen generally called Cryj1). […]
1 mg or 10 mg of a sample was weighed, and 500 μL of Dermatophagoides farinae allergen (DerfII) prepared at 40 ng/mL using an antigen diluent was added thereto. […] After 30 minutes, 2N sulfuric acid was added so as to stop the reaction, and the absorbance at 490 nm was measured. The results were expressed as percentage allergen inactivation of various samples by determining the relationship between amount of allergen and absorbance from an evaluation carried out without using a sample, determining the amount of allergen remaining from the absorbance obtained when evaluating various types of samples, and calculating from equation 1.

[2] = biological target: T2, Dermatophagoides farinae allergen (Den) (Dermatophagoides farinae, UniProt Q00855); assay: ELISA, anti-allergen effect of processed fiber product; format: biochemical; conditions: fabric after washing in 500 mL ion exchanged water 1 minute, air-dried; standardized to blank = 0
T2 sequence (Q00855 18-146): T1 sequence (Q00855 18-146)
Protocol: When a test target is an article comprising another substance in addition to an anti-allergen agent, such as a coating agent containing an anti-allergen agent, a resin kneaded with an anti-allergen agent, or a fiber having an anti-allergen agent attached thereto, a blank test is carried out using the same article except that the anti-allergen agent is excluded, and other measurement results may be standardized so that the percentage allergen inactivation of the blank test becomes 0. In this case, as long as it is stated that a measurement result is standardized, the value after standardization may be used as the percentage allergen inactivation.
The anti-allergen effects of a processed fiber product were evaluated as percentage anti-allergen inactivation from Equation 1 above by measuring absorbance by the same ELISA method as for a solid acid powder using Dermatophagoides farinae allergen (Den) as the allergen and dividing […] of fiber into 8, and comparing with the absorbance when a fiber product having no solid acid added thereto was used.

allergen = assay: Allergen inactivating effect after standing in PBS (discoloration test); format: biochemical; conditions: 1 mg after 3 days in 0.5 mL PBS at room temperature
Protocol: (§1) 1 mg of anti-allergen agent (1) of Example 2-1 was placed in 0.5 mL of PBS (pH 7.29, containing 0.1% Tween 20 and 0.001% BSA) and allowed to stand at room temperature for 3 days, color change and allergen inactivating effect were then measured, and the results are shown in Table 7.
(§2) 1 mg of tannic acid was placed in 0.5 mL of PBS (pH 7.29, containing 0.1% Tween 20 and 0.001% BSA) and allowed to stand at room temperature for 3 days, color change and allergen inactivating effect were then measured, and the results are shown in Table 7.

[3] = Yellowness (YI value, JIS-K7103-1977); format: physicochemical; conditions: powder
Text: With regard to a preferred yellowness, the YI value in accordance with JIS-K7103-1977 is preferably 50 or less, more preferably 20 or less, and yet more preferably 15 or less.

[4] = biological target: T3, Cryptomeria japonica pollen allergen (Cryj1) (Cryptomeria japonica, UniProt P18632); format: biochemical; conditions: 1 mg of sample
T3 sequence (P18632 22-374): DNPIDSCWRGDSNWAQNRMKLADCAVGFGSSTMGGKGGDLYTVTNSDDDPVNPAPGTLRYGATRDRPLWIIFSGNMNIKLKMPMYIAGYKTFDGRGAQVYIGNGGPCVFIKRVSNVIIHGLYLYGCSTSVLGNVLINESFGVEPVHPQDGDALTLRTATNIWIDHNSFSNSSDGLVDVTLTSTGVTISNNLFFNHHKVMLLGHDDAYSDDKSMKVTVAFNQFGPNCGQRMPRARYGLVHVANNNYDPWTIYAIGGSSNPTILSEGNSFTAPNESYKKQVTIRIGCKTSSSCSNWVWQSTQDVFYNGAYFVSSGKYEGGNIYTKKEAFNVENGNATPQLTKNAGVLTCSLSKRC
Protocol: as §3, §4
The test procedure for the sandwich ELISA method when Cryptomeria japonica pollen allergen was used was as follows.
1 mg or 10 mg of a sample was weighed, and 500 μL of Cryptomeria japonica pollen allergen (Cryj1) prepared at 10 ng/mL using an antigen diluent was added thereto. […] After 2 hours, the antibody liquid was discarded, each well was washed with washing buffer, a substrate liquid was added to each well, and the wells were allowed to stand at room temperature. After 10 minutes, 2N sulfuric acid was added so as to stop the reaction, and the absorbance at 490 nm was measured. The results are expressed as percentage allergen inactivation of various types of samples by calculating from Equation 1 by the same method as for Dermatophagoides farinae allergen.

[5] = Discoloration test in PBS or ion exchanged water; format: physicochemical
Protocol: as §1
1 mg of anti-allergen agent (1) of Example 2-1 was placed in 0.5 mL of ion exchanged water (pH 6.37) and allowed to stand at room temperature for 7 days, color change was then examined, and the result is shown in Table 7.
as §2
1 mg of tannic acid was placed in 0.5 mL of ion exchanged water (pH 6.37) and allowed to stand at room temperature for 7 days, color change was examined, and the result is shown in Table 7.

O=C(OC[C@H]1O[C@@H](OC(=O)c2cc(O)c(O)c(OC(=O)c3cc(O)c(O)c(O)c3)c2)[C@H](OC(=O)c2cc(O)c(O)c(OC(=O)c3cc(O)c(O)c(O)c3)c2)[C@@H](OC(=O)c2cc(O)c(O)c(OC(=O)c3cc(O)c(O)c(O)c3)c2)[C@@H]1OC(=O)c1cc(O)c(O)c(OC(=O)c2cc(O)c(O)c(O)c2)c1)c1cc(O)c(O)c(OC(=O)c2cc(O)c(O)c(O)c2)c1 [Comparative Example 2-1, Tannic Acid]
Percentage allergen inactivation (%) DerfII [1]: 95% | Percentage allergen inactivation (%) [2]: activity disappeared after washing | Percentage allergen inactivation (%) (allergen): Less than 50% | Yellowness [3]: 71.28 | Yellowness ([3]; listed as tannic acid): 71.8 | Percentage allergen inactivation (%) Cryj1 [4]: 97% | Color of solution (after evaluation) ([5]; 1 mg in 0.5 mL PBS pH 7.29 (0.1% Tween 20, 0.001% BSA), room temperature, 3 days): Brown | Color of solution (after evaluation) ([5]; 1 mg in 0.5 mL ion exchanged water pH 6.37, room temperature, 7 days): Brown
